Assay results published in PubChem BioAssay (NCI).
“And” between values parts separate entries of the source, which are not always exact repeats. Equal values may be shown once.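 How tested: cells in 96-well plates exposed to compound for 48 hours at five concentrations. GI50 marks 50% less growth. TGI denotes the concentration required for complete inhibition of growth.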

Legend:
Test in all cases: NCI tumour cell line growth inhibition, 48 h
[1] = tested on: HOP-62 NSCLC
[2] = tested on: IGROV1 ovarian
[3] = tested on: K-562 leukemia
[4] = tested on: M14 melanoma
[5] = tested on: MCF7 breast
[6] = tested on: RXF 393 renal
[7] = tested on: SK-MEL-5 melanoma
[8] = tested on: T-47D breast
[9] = tested on: U251 CNS
[10] = tested on: UACC-62 melanoma

Row | SMILES | GI50 [1] [µM] | TGI [1] | GI50 [2] [µM] | TGI [2] | GI50 [3] | TGI [3] | GI50 [4] [µM] | TGI [4] [µM] | GI50 [5] [µM] | TGI [5] | GI50 [6] [µM] | TGI [6] | GI50 [7] [µM] | TGI [7] [µM] | GI50 [8] [µM] | TGI [8] | GI50 [9] [µM] | TGI [9] [µM] | GI50 [10] [µM] | TGI [10] [µM]
1 | O=C(CC(O)c1ccncc1)c1ccccc1 (stereo unspecified) | 31.7 | > 100 µM | 35.9 | > 100 µM | 23.9 µM | > 100 µM | 28.6 | > 100 | 24.7 | > 100 µM | 21.3 | > 100 µM | 16.1 | 30.8 | 25.7 | > 100 µM | 28.6 | > 100 | 32 | > 100
2 | Cc1[nH]n(-c2ccc(S(=O)(=O)O)cc2)c(=O)c1N=Nc1ccccc1 | – | > 100 µM | – | > 100 µM | – | > 100 µM | – | > 100 | – | > 100 µM | – | > 100 µM | – | > 100 | – | > 100 µM | – | > 100 | – | > 100
3 | COc1cc(OC)c2cc(C(=O)O)c(=O)oc2c1 | > 100 | > 100 µM | > 84.9 | > 100 µM | > 100 µM | > 100 µM | > 100 | > 100 | > 100 | > 100 µM | > 100 | > 100 µM | > 100 | > 100 | > 100 | > 100 µM | > 100 | > 100 | > 71.8 | > 100
4 | CC(C)=CCc1ccc(O)c(=O)cc1C(C)C | 0.685 | > 100 µM | 0.43 | 16.1 µM | 0.466 µM | > 100 µM | 0.68 | 3.95 | 0.501 | > 100 µM | 1.55 | 17.4 µM | 0.582 | 4.08 | 3.29 | > 100 µM | 0.472 | > 100 | 0.493 | 4.38
5 | O=C1CSC(=S)N1Cc1cccnc1 | 47 | > 100 µM | 4.4 | 19 µM | 3.75 µM | > 100 µM | 15.3 | 39.4 | 2.43 | 12.8 µM | 6.11 | 24.2 µM | 24.5 | 71.6 | 11.1 | 32.7 µM | 23.5 | 61.5 | 11.3 | 24.7
6 | COc1ccc2cc3[n+](cc2c1OC)CCc1cc2c(cc1-3)OCO2 | – | > 100 µM and 42.4 µM | 18.4 | > 100 µM and 137 µM | 12.3 µM and 11 µM and 23.5 µM | > 100 µM and > 49.7 µM and 199 µM | 16.9 | – | – | > 100 µM and > 88.3 µM and 126 µM | 50.7 | > 100 µM and 223 µM | 1.26 | – | 1.88 | 29.5 µM and 42.2 µM and > 68 µM | – | – | 7.24 | –
7 | O=C(Nc1ccc(Cl)cc1)c1ccc([N+](=O)[O-])o1 | 1.49 | 3.27 µM | 3.25 | 11.2 µM | – | – | 1.99 | 4.28 | 1.52 | 4.19 µM | 1.34 | 3.42 µM | 3.42 | 13.2 | 4.42 | 23.2 µM | 1.36 | 2.87 | 1.46 | 3.1
